The structures appear in SMILES notation.

As to `CC(C)(CC(O)(CO)C(F)(F)F)c1cc(Br)cc2c1OCC2` (centres undefined), the melting point was 124 to 128 °C. Compound `CCc1cc(C=O)ccc1N=C1SCC2(CCCC2)N1C1CCCC1` gave a melting point of 104 to 105 °C.

For the compound `CCCOc1c(C=O)c(=O)n(C)c(=O)n1C`, the melting point was 57 to 58 °C. `CC1(C)Cc2c(c(N3CCOCC3)nc3sc4c(NCCCN5CCCC5=O)ncnc4c23)CO1` showed a melting point of 216 to 217 °C.

`COc1ccc2c(c1)C(c1ccccc1)NC(=O)N2CC(F)(F)F` (centres undefined) showed a melting point of 168 to 169 °C.

On to `C[C@@H]1OC(P(=O)(O)O)=CC[C@@]1(O)n1cnc2c(N)ncnc21`, for which the melting point worked out at 151 °C. The compound `c1ccc(-c2nc(CCCCCCc3nnn[nH]3)oc2-c2ccccc2)cc1` displayed a melting point of 132 °C. In turn, `O=CN(c1cc(Cl)cc(Cl)c1)c1cc(S(=O)(=O)NC(c2ccccc2)c2ccccc2)ccc1Cl` gave a melting point of 196 to 198 °C. `CN1CCN(C(=O)c2cnn(C)c2C(=O)Nc2ccn3nc(-c4cccc(F)c4)nc3c2)CC1` returned a melting point of 224 to 227 °C. Regarding `COc1ccc2c(c1)S(=O)(=O)C(C(=O)Nc1ccc(F)cc1)C(=O)N2C` (centres undefined), the melting point lay within 202 to 204 °C.

In turn, `O=S(=O)(Cl)c1ccc(CCc2ccccc2)cc1` returned a melting point of 90 to 95 °C.

In turn, `CCCCOc1ccc(F)cc1OCCN1C(=O)c2ccccc2C1=O` registered a melting point of 107 to 108 °C. With `Cn1c(=O)c2conc2n(C2CCCCC2)c1=O`, the melting point was in the range of 194 to 197 °C. As for `N#Cc1cnc2cc(O)ccc2c1Nc1ccc(Cl)cc1F`, the melting point lay within 295 to 305 °C.

`CCn1cccc(C2c3cc(C(=O)OC)ccc3OC(C)(C)C2O)c1=O` (centres undefined) showed a melting point of 120 °C.

Turning to `CC(C)[C@H](OCc1ccccc1)[C@H]1[C@H]([N+](=O)[O-])[C@H](c2ccccc2)N[C@@H]1C(=O)NCC(=O)O`, the melting point is 71 to 72 °C. The compound `O=C(O)Cc1ccc(Oc2cccc(C(F)(F)F)c2)cc1` had a melting point of 61 to 63 °C. The value for `CSc1nc(N)c(C#N)c(N2CCc3ccccc3CC2)n1` was greater than 200 °C. As for `CC(=O)OCC1CC(OC(C)=O)C(n2c(Br)nc3cc(Cl)c(Cl)cc32)C1` (centres undefined), the melting point lay in the range of 122 to 125 °C. In turn, `OCCOc1ccsc1` came in with a melting point of 38 to 39 °C. In turn, `CN(C)c1nc(N2CCOCC2)nc(-n2ccnc2)n1` registered a melting point of 156 to 158 °C. On to `CCN(CC)CCOc1ccc(-c2nnc(CSCCOc3ccccc3)o2)cc1`, for which the melting point lay in the range of 32 to 35 °C. `CCC1C(=O)Oc2c(Oc3ccccc3C)cccc21` (centres undefined) came in with a melting point of 44 to 45 °C. In turn, `CCOC(=O)c1cnc2cc(-c3ccccc3)sc2c1O` had a melting point of 286 to 289 °C. `C#CCN(Cc1ccc2nc(C)[nH]c(=O)c2c1)c1ccc(C(=O)NC(COC(C)=O)c2cccc([N+](=O)[O-])c2)cc1` (centres undefined): the melting point lay within 133 to 135 °C.

Take `Cc1cccc(OC(=O)C(=O)Oc2cccc(C)c2)c1`: the melting point fell in the range of 101 to 103 °C.

For the compound `CCOC(=O)CCCCc1oc(-n2ccnc2C)nc1-c1ccc(Cl)cc1`, the melting point was 93 to 94 °C. On to `O=C1c2ccccc2C(OCC2CO2)N1c1cccc(Cl)c1` (centres undefined), for which the melting point is 170 °C. The value for `Nc1c(CC(=O)O)cccc1S(=O)(=O)c1ccccc1` was 218 to 220 °C; that for `COc1cc(OC)nc(Oc2cccc(O)c2C=O)n1` was 82 °C; that for `CS(=O)(=O)C(=C1CN(C(c2ccccc2)c2ccccc2)C1)c1cc(F)cc(F)c1` was 172 °C. With `Clc1nnc(Cl)c2cc3ccccc3cc12`, the melting point fell in the range of 224 to 228 °C. Consider `CCOC(=O)c1c2n(c3ccc(Cl)cc3c1=O)CCS2`, for which the melting point came to 321 °C. Turning to `CCn1c(=O)oc2cc(N3C[C@H](C(N)=O)OC3=O)ccc21`, the melting point lay within 234 to 236 °C.

`NC(=O)c1cc([N+](=O)[O-])c(Cl)cc1N1CC1` came in with a melting point of 155 °C.

For `CC[C@H]1CN(c2c(F)c(N)c3c(=O)c(C(=O)O)cn(C4CC4)c3c2F)C[C@H]1CNCCC(=O)C(F)(F)F` (relative stereo), the melting point is 145 to 146 °C. With `CC1=NN(CCN2CCOCC2)S(=O)(=O)c2sc(S(N)(=O)=O)cc21`, the melting point lay within 160 to 162 °C. In turn, `COc1ccc(C(NCc2cccc(F)c2)c2cccc(Nc3c(N)c(=O)c3=O)c2)cc1` (centres undefined) had a melting point of 209 to 212 °C. Consider `Cn1cncc1C(O)(c1ccc(CO)cc1)c1ccc2c(c1)c(-c1cccc(Cl)c1)cc(=O)n2C` (centres undefined), for which the melting point worked out at 273 °C. In turn, `CC(=O)Nc1c(C#N)ccc(C#N)c1[N+](=O)[O-]` registered a melting point of 232 to 233 °C. The value for `C#Cc1cnc(OCCC)c(-c2nc3c(CC)n(C4CCN(C(=O)OC(C)(C)C)CC4)nc3c(=O)[nH]2)c1` was 221 °C.

Compound `CCCCCN(CCC12CC3CC(CC(C3)C1)C2)C(=O)NCCc1ccncc1` returned a melting point of 107 to 118 °C.

As for `O=C(Nc1ccc2oc(=O)[nH]c2c1)C(=O)N1CCC(Cc2ccc(F)cc2)CC1`, the melting point was in the range of 226 to 231 °C. The compound `COc1ccc(C)c2nc(Cl)c(C(C)C)cc12` returned a melting point of 74 to 76 °C. Compound `Cc1nc2c(O)c(CC[C@H](O)c3ccccc3)c(C(=O)N(C)C)cn2c1C` registered a melting point of 185 to 187 °C. The value for `Cc1nnc(-c2ccc3occ(-c4ccc(C=O)c(F)c4)c3c2)o1` was 207 to 208 °C; that for `CCC(COC)Nc1nc(C)nc2c1nnn2-c1ccc(C(C)C)cc1Br` (centres undefined) was 132 to 134 °C; that for `CC1Cc2cc3c(cc2C(c2ccc([N+](=O)[O-])cc2)=NN1C1=NC(=O)CCS1)OCO3` (centres undefined) was 220 to 221 °C. For `CC(C)(C)OC(=O)NCCNC(=O)c1ccc(CO)cc1`, the melting point was in the range of 117 to 119 °C. `CCCOc1cc(NC(=O)NC(C)C)ccn1`: the melting point was in the range of 77 to 79 °C. `CCOC(=O)c1nc2ccccc2[nH]c1=O` came in with a melting point of 169 to 170 °C.

As to `CCCCCCCCCCCCCCCCOCC(COCCCCCCCCCCCCCCCC)NCCC#N`, the melting point lay in the range of 45 to 46 °C.

For the compound `C[C@H]1c2cc(F)ccc2-c2ccccc2N1S(=O)(=O)c1ccc(O)cc1`, the melting point turned out to be 193 °C.

In the case of `CC(C#N)c1cccc(C(=O)c2cc3sccc3s2)c1` (centres undefined), the melting point was found to be 75 °C. For the compound `CCCCCCc1cc2c(s1)NC(=O)CN=C2c1ccccc1C`, the melting point fell in the range of 162 to 163 °C. `N#CN=[N+]([O-])c1ccc2c(c1)OCO2` had a melting point of 145 to 147 °C. The value for `COc1c(C)cc(N)c(CS(=O)c2nc3ccccc3[nH]2)c1C` (centres undefined) was 150 to 155 °C; that for `CCC1(CC)C(=O)C(C)N(c2ccc(C#N)c(Cl)c2)C1=O` (centres undefined) was 93.5 to 94.5 °C. `Cc1oc(-c2ccccc2)nc1COc1ccc(CON=C(CCCCCCC(=O)O)c2ccc(Cl)cc2)cc1` showed a melting point of 54 to 57 °C. In turn, `COc1ccc(CN2CCC(c3cn(Cc4ccoc4)c4ncccc34)CC2)cc1C(=O)O` showed a melting point of 230 to 232 °C. For the compound `COC(=O)c1ccc(-c2n[nH]c(-c3ccccc3)n2)cc1`, the melting point is 243 to 244 °C.

For the compound `CS(=O)(=O)c1ccc(Oc2ccc(C#N)cc2)cc1`, the melting point lay in the range of 127 to 128 °C. Take `Cn1cnnc1SCC(=O)C12CC3CC(CC(C3)C1)C2`: the melting point fell in the range of 134 to 136 °C. Consider `CCOC(=O)c1ncc2[nH]c3ccc(C4=CC(=O)CCC4)cc3c2c1C`, for which the melting point fell in the range of 245 to 248 °C. In the case of `C=CCC(c1ccc(C(O)(C(F)(F)F)C(F)(F)F)cc1)S(=O)(=O)c1ccccc1` (centres undefined) it was 148 °C; in that of `COc1cc(N)c(Cl)cc1C(=O)NCC1CCN(CCCCC(=O)c2cn(C)c3ccccc23)CC1`, 87 to 89 °C; in that of `NCc1nnc2n1-c1sc(Cl)cc1C(c1ccccc1Cl)=NC2`, 190 to 192 °C. On to `O=C(CCl)Nc1nc2cc3nc(NC(=O)CCl)sc3cc2s1`, for which the melting point stood at 330 °C. The value for `CC(C(=O)O)c1cccc(OCCC(=O)O)c1` (centres undefined) was 144 to 146 °C; that for `Cc1c(C)c(C(=O)O)c(C)c(C)c1C(=O)O` was greater than 300 °C. Take `CCOc1ccc(N(Cc2ccccc2)Cc2ccccc2)cc1`: the melting point lay within 80 to 82 °C. Turning to `CCc1c(CC)n(Cc2ccccc2Cl)c2cc(C(=O)OC)ccc12`, the melting point was in the range of 86 to 88 °C. `COc1ccc(CSC2(C(=O)O)CCCCC2)cc1` had a melting point of 98 °C. On to `CC1CCCCC1OC(=O)c1cc(NCSc2ccccc2)ccc1Cl` (centres undefined), for which the melting point is 143 to 144 °C.

As for `CCCCNCCOc1ccc(NC(=O)c2c[nH]c3c2C(=O)CCC3)cc1F`, the melting point was in the range of 290 to 292 °C. Compound `O=S(=O)(c1ccc(F)cc1)N1CCCC1c1ccccc1F` (racemic) yielded a melting point of 108 °C.

In turn, `O=C(NCCCl)Nc1ccncc1` came in with a melting point of 120 to 122 °C. For the compound `O=c1[nH]c2ccsc2c(=O)n1CCN1CCN(c2ccccc2)CC1`, the melting point was 215 to 217 °C. In the case of `COc1ccc(C2=NNC(=O)Cc3cc4c(cc32)OCO4)cc1` it was 194 to 196 °C; in that of `CC(C)(C)c1ccc(-c2ccc(C(C)(C)C)c(O)c2)cc1`, 86 to 87 °C; in that of `COc1cc(N2CCCN(C[C@H](O)CO)CC2)ccc1Nc1ncc2ccc(-c3ccccc3OC)n2n1`, 93 to 99 °C. `CC(=O)NC[C@H]1CN(c2ccc(-n3cnnc3S)c(F)c2)C(=O)O1` yielded a melting point of 269 to 271 °C.

The compound `CS(=O)(=O)c1ccc(-c2sc(Cc3ccccc3)nc2-c2ccc(F)cc2)cc1` gave a melting point of 117 to 118 °C. For `COc1ccc(-c2cc(CN3C(=O)c4ccccc4C3=O)c(=O)n(CC3CC3)n2)cc1F`, the melting point is 242 to 244 °C. On to `COc1cc2c(cc1OC)C(C)N(C(=O)Cc1cccc([N+](=O)[O-])c1)CC2` (centres undefined), for which the melting point was in the range of 120 to 121 °C.

In the case of `Cc1c(C(=O)Nc2ccc(Cl)c([N+](=O)[O-])c2)cnn1-c1ccc(Cl)cc1`, the melting point is 221 to 225 °C. `CN1C(C(=O)Nc2ccccn2)=C(OC(=O)C=Cc2ccccc2)c2ccccc2S1(=O)=O` yielded a melting point of 156 to 158 °C. `Cc1cccc(C(=O)NC(C)C)c1NC(=O)c1cc(C(F)(F)F)nn1-c1ncccc1Cl` had a melting point of 194 to 196 °C. Take `CC1Oc2ccc(Cl)cc2N(CC(O)CO)C1=O` (centres undefined): the melting point was 88 °C.

The record behind these values is a melting point compilation (Tetko et al.; mined from patent text by program, amines drawn as free bases though some values may be those of a salt).
